The text below walks through data of EP4741391A1, “NMT INHIBITOR, AND PREPARATION METHOD THEREFOR AND USE THEREOF” (Nanjing Synnocare Pharmaceutical Technology Co., Ltd., priority 2023, dated 2025).

One assay has as its target T1, NMT1 enzyme (Homo sapiens, UniProt P30419).
T1 sequence (P30419 1-496): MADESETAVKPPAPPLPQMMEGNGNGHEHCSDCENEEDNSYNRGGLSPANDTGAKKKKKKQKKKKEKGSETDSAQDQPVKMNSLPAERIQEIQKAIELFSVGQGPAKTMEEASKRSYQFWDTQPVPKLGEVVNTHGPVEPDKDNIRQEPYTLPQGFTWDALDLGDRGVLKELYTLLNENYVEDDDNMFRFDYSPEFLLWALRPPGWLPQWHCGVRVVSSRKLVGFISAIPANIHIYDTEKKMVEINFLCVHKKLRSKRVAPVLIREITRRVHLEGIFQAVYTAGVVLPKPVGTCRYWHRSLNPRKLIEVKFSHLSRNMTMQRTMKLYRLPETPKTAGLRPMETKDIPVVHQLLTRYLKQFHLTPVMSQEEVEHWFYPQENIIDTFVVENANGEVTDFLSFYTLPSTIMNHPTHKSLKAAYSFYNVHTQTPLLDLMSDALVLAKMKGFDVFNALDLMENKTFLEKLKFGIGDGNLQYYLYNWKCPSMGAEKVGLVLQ
The assay is described as follows: Inhibitory activity on NMT1 enzyme catalysis (fluorescence intensity, CPM probe). Conditions: 6 nM NMT1 enzyme, 1.25 µM myristoyl-CoA, 20 µM HSPP60 SRC peptide, 45 minutes at 25 °C. It is filed as biochemical. On the procedure:
This study evaluated the ability of the compounds of the invention to inhibit NMT1 catalytic activity in vitro. The experiment used a FI (Fluorescence Intensity) analysis method, characterizing NMT1 inhibitors under conditions of 1.25 µM myristoyl-CoA (Lithium salt, Sigma, M4414). In this experiment, a synthesized peptide with the sequence H-Gly-Ser-Asn-Lys-Ser-Lys-Pro-Lys-NH2, HSPP60SRC (Nanjing Peptide Industry, NJP23953), was used as the reaction substrate. The final concentration of the NMT1 enzyme was 6 nM, the final concentration of CPM (Reactive thiol fluorescence probe, Invitrogen, D346) was 1 µM, the final concentration of HSPP60 SRC was 20 µM, and the final concentration of DMSO was 0.5%.
Compounds were dissolved in DMSO to obtain 10 mM stock solutions. Dose-response solutions were prepared with a top endpoint compound concentration of 3 mM, followed by three-fold serial dilutions in DMSO, totaling ten data points. Using an ECHO acoustic liquid handler (BECKMAN, ECHO 655 system), 0.05 µL of the diluted compound solutions was transferred to a 384-well assay plate (Corning, CLS4514). Then, 2.5 µL of the NMT1 enzyme working solution was added to the 384-well assay plate, followed by incubation at 25 °C for 10 minutes. Subsequently, 5 µL of the CPM and myristoyl-CoA working solution was added, the plate was centrifuged at 1000 rpm for 1 minute, and then 2.5 µL of the HSPP60 SRC working solution was added to initiate the reaction. The reaction was incubated at 25 °C for 45 minutes. The FI signal ([…]; ex: 405 nm) was detected using an HTS high-throughput screening multifunctional microplate reader (BMG, PHERA star FSX).
The inhibition rate of the compounds on NMT1 enzyme catalytic activity was calculated using the following formula: Inhibition Percentage (%) = 100 * (Mean of DMSO group - Mean of Compound group) / (Mean of DMSO group - Mean of Blank control group). The IC50 curve of the compounds was fitted using the software XLfit 5.5.0 according to the nonlinear regression equation. Table 1 provides the inhibitory activity of the compounds of the invention on NMT1 enzyme catalysis.

A further assay has as its system MV-4-11 cells. Put plainly: Anti-proliferative activity against MV-4-11 cells (three-day cell viability chemiluminescence). It is filed as cell-based. Conditions: MV-4-11 human monocytic leukemia cells, three days of exposure. How it is done:
This study utilized a cell proliferation assay to analyze the cytotoxicity of MV-4-11 human monocytic leukemia cells after three days of exposure to NMT1 inhibitors. The MV-4-11 cell line was purchased from Nanjing Cobuilder Biotechnology Co., Ltd., and cultured in IMDM medium (Viva cell) in an incubator (Thermo) at 37 °C with 5% CO2. In this experiment, NMT1 inhibitors were dissolved in DMSO to obtain 600 µM stock solutions. Dose-response solutions were prepared with a top endpoint compound concentration of 3 µM, followed by three-fold serial dilutions in DMSO, totaling eight data points. The final concentration of DMSO was 0.5%.
MV-4-11 cells were seeded into a white 96-well plate, 80 µL of cell suspension per well, containing 6000 MV-4-11 cells. The cell plate was placed in the CO2 incubator for overnight culture. Then, 20 µL of NMT1 inhibitor solutions at different concentrations were added to the wells. The 96-well plate was placed back into the incubator for three days. Another cell plate was prepared, and the signal was read on the day of drug addition to serve as the maximum value (Max value in the equation below) for data analysis. To this cell plate, 25 µL of cell viability chemiluminescence detection reagent was added per well, followed by incubation at room temperature for 10 minutes to stabilize the luminescence signal. A multi-label analyzer was used for reading.
The raw data were converted into inhibition rates using the equation (Sample - Min) / (Max - Min) * 100%. The IC50 values were then determined by fitting a four-parameter curve (using the "log(inhibitor) vs. response - Variable slope" model in GraphPad Prism). Min: wells treated with 0.5% DMSO; Max: Day 0 wells. Table 1 provides the inhibitory activity of the compounds of the invention on MV-4-11 cell proliferation. Table 1: Compound Inhibitory Activity against NMT1 Enzyme (IC50) and Anti-proliferative Activity against MV-4-11 Cells (IC50)

Structures are written as SMILES.

In the case of `Cc1c(CCOc2ccc(F)cc2-c2ccn3ncc(CN(C)C)c3c2)c(C(=O)N(C)C)nn1C` [Compound 6, 4-{2-[(2-{3-[(dimethylamino)methyl]pyrazolo[1,5-a]pyridin-5-yl}-4-fluorophenyl)oxy]ethyl}-1,5,N,N-tetrameth ylpyrazole-3-carboxamide], the IC50 at NMT1 enzyme amounted to 2.89 nM; in the assay with MV-4-11 cells (Homo sapiens, MV4-11, 72 h) it was 30.2 nM.
Take `CNCc1cnn2ccc(-c3ccc(F)c(F)c3OCCc3c(C(=O)N(C)C)nn(C)c3C)cc12` [Compound 21, 4-{2-[(2,3-difluoro-6-{3-[(methylamino)methyl]pyrazolo[1,5-a]pyridin-5-y 1}phenyl)oxy]ethyl}-1,5,N,N-tetramet hylpyrazole-3-carboxamide]: the IC50 at NMT1 enzyme was 1.61 nM; in the assay with MV-4-11 cells (Homo sapiens, MV4-11, 72 h) it was below 10 nM; in the assay with MV-4-11 cells, 5.91 nM.
Regarding `CNCc1cnn2ccc(-c3ccc(F)c(F)c3OCCc3c(C(C)C)nn(C)c3C)cc12` [Compound 25, 5-[2-({2-[1,5-dimethyl-3-(prop-2-yl)pyrazol-4-yl]ethyl}oxy)-3,4-difluorophenyl]-3-[(methylamino)methyl]pyrazo lo[1,5-a]pyridine], the IC50 at NMT1 enzyme stood at 3.26 nM; in the assay on MV-4-11 cells (Homo sapiens, MV4-11, 72 h), 25.8 nM.
For `CNCc1cnn2ccc(-c3ccc(F)c(F)c3OCCc3c(C(=O)NC)nn(C)c3C)cc12` [Compound 22, 4-{2-[(2,3-difluoro-6-{3-[(methylamino)methyl]pyrazolo[1,5-a]pyridin-5-yl}phenyl)oxy]ethyl}-1,5,N-trimethylp yrazole-3-carboxamide], in that order: 1.89 nM and 10.6 nM.
For `CNCc1cnn2ccc(-c3ccc(F)cc3OCCc3c(C(C)(C)O)nn(C)c3C)cc12` [Compound 33, 2-(4-{2-[(5-fluoro-2-{3-[(methylamino)methyl]pyrazolo[1,5-a]pyridin-5-yl}phenyl)oxy]ethyl}-1,5-dimethylpyrazol-3-yl)propan-2-ol], in that order: 2.13 nM and 5.49 nM.
As for `CCc1nn(C)c(C)c1CCOc1c(-c2ccn3ncc(CNC)c3c2)ccc(F)c1F` [Compound 24, 5-(2-{[2-(3-ethyl-1,5-dimethylpyrazol-4-yl)ethyl]oxy}-3,4-difluorophenyl)-3-[(methylamino)methyl]pyrazolo[1,5-a]pyridine], the IC50 at NMT1 enzyme was determined as 2.81 nM; in the assay on MV-4-11 cells (Homo sapiens, MV4-11, 72 h), 24.9 nM.
Take `Cc1c(CCOc2cc(Cl)ccc2-c2ccn3ncc(CN(C)C)c3c2)c(C(N)=O)nn1C` [Compound 16, 4-{2-[(5-chloro-2-{3-[(dimethylamino)methyl]pyrazolo[1,5-a]pyridin-5-yl}phenyl)oxy]ethyl}-1,5-dimethylpyrazole-3-carboxamide]: the IC50 worked out at 5.32 nM against NMT1 enzyme and 41.8 nM with MV-4-11 cells (Homo sapiens, MV4-11, 72 h).
`Cc1c(CCOc2cc(Cl)ccc2-c2ccn3ncc(CN)c3c2)c(C(=O)N(C)C)nn1C` [Compound 3, 4-[2-({2-[3-(aminomethyl)pyrazolo[1,5-a]pyridin-5-yl]-5-chlorophenyl}oxy)ethyl]-1,5,N,N-tetramethylpyrazole-3-carboxamide]: the IC50 came to 3.45 nM against NMT1 enzyme and 41.2 nM in the assay on MV-4-11 cells (Homo sapiens, MV4-11, 72 h).

The term IC50 denotes the concentration needed to halve the response being measured. A low value points to higher potency.
